Laboratory results as given in patent EP4810052A2, “HCRHR2 SELECTIVE POLYPEPTIDES” (Gubra A/S, priority 2023, dated 2026).
Marks after values point to notes of the source that are not given here. Starred links: 1 amine or outer side, 2 acyl side, 3 side chain; linkers in the order of their positions; H or OH if unused. Non-standard residues stand in square brackets, D forms with d. Residues, ends and D or L forms follow the SMILES beside them. Groups on a side chain read outwards from the residue. *: point of attachment. C20 diacid = O=C(O)CCCCCCCCCCCCCCCCCCC(=O)*; γGlu = O=C(O)[C@H](CCC(=O)[*:2])N[*:1]; NMeI = CC[C@H](C)[C@H](NC)C(=O)O; Nle = CCCC[C@H](N)C(=O)O; AEEA = NCCOCCOCC(=O)O; Aib = CC(C)(N)C(=O)O

Experiments:
[1] = Chemical stability of purified peptides (RP-UHPLC main peak purity loss); assay type: physicochemical
Summary of the method: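 Peptides at about 1.0 mg/ml in 50 mM phosphate buffer pH 7.5, or pH-adjusted for the pH series, were incubated at 40 °C for 14 and 28 days. Main-peak purity was taken as main-peak area over total area by RP-UHPLC (UV 215 nm, C8, 50 °C). Purity loss was calculated versus T0.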

PK in mice = assay type: in vivo; set-up: T½ / MRT: unit: h; conditions: Mouse
Procedure: (§1) Lean male NMRI/RjHan mice were obtained from JanVier (JanVier Labs, France) at 6 weeks of age. The animals were single housed under a 12/12 h dark-light cycle, light off at 3 PM. Room temperature was controlled to 22°C ± 1°C, with 60 % ± 20% humidity. Animals had ad libitum access to regular rodent chow (Altromin 1324, Brogaarden, Denmark) and tap water.
After 2 weeks of acclimatization, the animals were randomized into treatment groups (n=9 per group) based on body weight. Animals were dosed IV with one peptide and SC with another peptide (15 or 50 nmol/kg) Plasma samples were collected for PK analysis at times 0.17, 1, 3, 6, 24, 30, 48, 72 and 96 hours post dosing in a sparse sampling design with 3 mice per group per timepoint. Plasma samples were analyzed using LC-MSMS and PK parameters were estimated by Non-Compartmental Analysis (NCA).

PK in rats = assay type: in vivo; set-up: T½ / MRT: unit not given here; conditions: Rat
Summary of the method: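 Lean male Sprague Dawley rats (n = 3 per group) got a two-peptide combination at 50 nmol/kg IV and SC. Plasma was sampled from 0.17 to 96 h post dose and analysed by LC-MSMS. PK parameters came from non-compartmental analysis.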

[2] = Effect on acute food intake in mice; assay type: in vivo; conditions: single subcutaneous dose
Procedure: as §1, with “Male NMRI mice” for “Lean male NMRI/RjHan mice”, “at 5” for “at 6”, “were group-housed 4 mice pr. cage” for “were single housed”, “at 1” for “at 3”
Animals were transferred 5-7 days before the start of the study to a real-time food intake monitoring system, HM-2 system (MBRose, Denmark) to allow acclimatization to experimental conditions. As the animals were uniquely identified with microchips, each individual animal was identified by its microchip upon entry and exit from the food channel. Randomization of the mice for each study group (n=7-8) was based on body weight measured the day before the start of the study. A vehicle-treated group was included in each experiment. Six hours before the start of the dark phase, animals were fasted. One hour before the dark phase, animals were dosed once subcutaneously with test peptide. Food intake was reported hourly for a period of 72 hours. The percentage of food intake reduction was normalized to average food intake from the vehicle group. Statistical significance was evaluated using One-way analysis of variance with Dunnett's multiple comparison test. P < 0.05 was considered statistically significant.
Selected compounds were tested according to the general procedure on acute food intake in mice to determine the effect of a single subcutaneous dose on food intake in mice over 3 days.

[3] = pH 7.5

Compound: CC[C@H](C)[C@H](N)C(=O)N[C@H](C(=O)N[C@@H](CC(C)C)C(=O)N[C@@H](CO)C(=O)N[C@@H](CC(C)C)C(=O)N[C@@H](CC(=O)O)C(=O)N[C@H](C(=O)N1CCC[C@H]1C(=O)N[C@H](C(=O)NCC(=O)N[C@@H](CC(C)C)C(=O)N[C@@H](CC(C)C)C(=O)N[C@@H](CCC(N)=O)C(=O)N[C@H](C(=O)N[C@@H](CC(C)C)C(=O)N[C@@H](CC(C)C)C(=O)N[C@@H](CCC(=O)O)C(=O)N[C@@H](CCC(N)=O)C(=O)N[C@@H](C)C(=O)N[C@@H](CCCNC(=N)N)C(=O)N[C@@H](C)C(=O)N[C@@H](CCCNC(=N)N)C(=O)N[C@@H](C)C(=O)N[C@@H](C)C(=O)N[C@@H](CCCNC(=N)N)C(=O)N[C@@H](CCC(=O)O)C(=O)N[C@@H](CCC(N)=O)C(=O)N[C@@H](C)C(=O)N[C@H](C(=O)N[C@@H](CCCCNC(=O)COCCOCCNC(=O)COCCOCCNC(=O)CC[C@H](NC(=O)CC[C@H](NC(=O)CCCCCCCCCCCCCCCCCCC(=O)O)C(=O)O)C(=O)O)C(=O)N[C@@H](CC(N)=O)C(=O)N[C@@H](C)C(=O)N[C@@H](CCC(=O)O)C(=O)N[C@H](C(=O)N[C@@H](CC(C)C)C(=O)N[C@@H](C)C(=O)N[C@@H](CCC(=O)O)C(=O)N[C@H](C(N)=O)C(C)C)[C@@H](C)CC)[C@@H](C)O)[C@@H](C)CC)[C@@H](C)CC)C(C)C)C(C)C [SEQ ID NO: 4] (H-IVLSLDVPIGLLQILLEQARARAAREQATK([AEEA-AEEA-γGlu-γGlu-C20 diacid])NAEILAEV-NH2)
- Chemical stability at pH 7.5 after 14 days at 40°C (% degradation) ([1]; pH 7.5, 40°C, 14 days, first value of cell): -1.3%
- Chemical stability at pH 7.5 after 28 days at 40°C (% degradation) ([1]; pH 7.5, 40°C, 28 days, second value of cell): -3.9%
- MRT (PK in mice): 18.2
- T½ (PK in mice): 14.8
- MRT (PK in rats): 6.4
- T½ (PK in rats): 5.3
- % FI compared to vehicle, 24 h post-dosing ([2]; 30 nmol/kg): 63.41*** %
- % FI compared to vehicle, 24 h post-dosing ([2]; 100 nmol/kg): 19.33*** %
- % FI compared to vehicle, 24 h post-dosing ([2]; 300 nmol/kg): 18.14*** %
- Solubility pH 7.5, target conc. =10 mg/mL (measured mg/mL) [3]: 9.1 mg/mL

Compound: CC[C@H](C)[C@H](NC)C(=O)N[C@H](C(=O)N[C@@H](CC(C)C)C(=O)N[C@@H](CO)C(=O)N[C@@H](CC(C)C)C(=O)N[C@@H](CC(=O)O)C(=O)N[C@H](C(=O)N1CCC[C@H]1C(=O)N[C@H](C(=O)NCC(=O)N[C@@H](CC(C)C)C(=O)N[C@@H](CC(C)C)C(=O)N[C@@H](CCC(N)=O)C(=O)N[C@H](C(=O)N[C@@H](CC(C)C)C(=O)N[C@@H](CC(C)C)C(=O)N[C@@H](CCC(=O)O)C(=O)N[C@@H](CCC(N)=O)C(=O)N[C@@H](C)C(=O)N[C@@H](CCCNC(=N)N)C(=O)N[C@@H](C)C(=O)N[C@@H](CCCNC(=N)N)C(=O)N[C@@H](C)C(=O)N[C@@H](C)C(=O)N[C@@H](CCCNC(=N)N)C(=O)N[C@@H](CCC(=O)O)C(=O)N[C@@H](CCC(N)=O)C(=O)N[C@@H](C)C(=O)N[C@@H](CCCCNC(=O)COCCOCCNC(=O)COCCOCCNC(=O)CC[C@H](NC(=O)CC[C@H](NC(=O)CCCCCCCCCCCCCCCCCCC(=O)O)C(=O)O)C(=O)O)C(=O)N[C@H](C(=O)N[C@@H](CC(N)=O)C(=O)N[C@@H](C)C(=O)N[C@@H](CCC(=O)O)C(=O)N[C@H](C(=O)N[C@@H](CC(C)C)C(=O)N[C@@H](C)C(=O)N[C@@H](CCC(=O)O)C(=O)N[C@H](C(N)=O)C(C)C)[C@@H](C)CC)[C@@H](C)O)[C@@H](C)CC)[C@@H](C)CC)C(C)C)C(C)C [SEQ ID NO: 5] (H-[NMeI]VLSLDVPIGLLQILLEQARARAAREQAK([AEEA-AEEA-γGlu-γGlu-C20 diacid])TNAEILAEV-NH2)
- MRT (PK in mice): 21
- T½ (PK in mice): 14.3
- MRT (PK in rats): 7.9
- T½ (PK in rats): 8.6
- % FI compared to vehicle, 24 h post-dosing ([2]; 30 nmol/kg): 45.67*** %
- % FI compared to vehicle, 24 h post-dosing ([2]; 100 nmol/kg): 18.68*** %
- % FI compared to vehicle, 24 h post-dosing ([2]; 300 nmol/kg): 15.93*** %
- Solubility pH 7.5, target conc. =10 mg/mL (measured mg/mL) [3]: 11 mg/mL

Compound: CCCC[C@H](NC(=O)[C@@H](NC(=O)[C@H](CCC(=O)O)NC(=O)[C@H](C)NC(=O)[C@H](CC(N)=O)NC(=O)C(C)(C)NC(=O)[C@H](CCCCNC(=O)COCCOCCNC(=O)COCCOCCNC(=O)CC[C@H](NC(=O)CC[C@H](NC(=O)CCCCCCCCCCCCCCCCCCC(=O)O)C(=O)O)C(=O)O)NC(=O)[C@H](C)NC(=O)[C@H](CCC(N)=O)NC(=O)[C@H](CCC(=O)O)NC(=O)[C@H](CCCNC(=N)N)NC(=O)[C@H](C)NC(=O)[C@H](C)NC(=O)[C@H](CCCNC(=N)N)NC(=O)[C@H](C)NC(=O)[C@H](CCCNC(=N)N)NC(=O)[C@H](C)NC(=O)[C@H](CCC(N)=O)NC(=O)[C@H](CO)NC(=O)[C@H](CC(C)C)NC(=O)[C@H](CC(C)C)NC(=O)[C@@H](NC(=O)[C@H](CCC(N)=O)NC(=O)[C@H](CC(C)C)NC(=O)[C@H](CC(C)C)NC(=O)CNC(=O)[C@@H](NC(=O)[C@@H]1CCCN1C(=O)[C@@H](NC(=O)[C@H](CC(=O)O)NC(=O)[C@H](CC(C)C)NC(=O)[C@H](CO)NC(=O)[C@H](CC(C)C)NC(=O)[C@@H](NC(=O)[C@@H](NC)[C@@H](C)CC)C(C)C)C(C)C)[C@@H](C)CC)[C@@H](C)CC)[C@@H](C)CC)C(=O)N[C@@H](C)C(=O)N[C@@H](CCC(=O)O)C(=O)N[C@H](C(N)=O)C(C)C [compound 132] (H-[NMeI]VLSLDVPIGLLQILLSQARARAAREQAK([AEEA-AEEA-γGlu-γGlu-C20 diacid])[Aib]NAEI[Nle]AEV-NH2)
- Chemical stability at pH 7.5 after 14 days at 40°C (% degradation) ([1]; pH 7.5, 14 days, 40°C): -1.6%
- Chemical stability at pH 7.5 after 28 days at 40°C (% degradation) ([1]; pH 7.5, 28 days, 40°C): -1.3%
- MRT (PK in mice): 16
- T½ (PK in mice): 11.2
- MRT (PK in rats): 6.2
- T½ (PK in rats): 4.8
- % FI compared to vehicle, 24 h post-dosing ([2]; 30 nmol/kg): 46.64*** %
- % FI compared to vehicle, 24 h post-dosing ([2]; 100 nmol/kg): 18.5*** %
- % FI compared to vehicle, 24 h post-dosing ([2]; 300 nmol/kg): 20.04*** %
- Solubility pH 7.5, target conc. =10 mg/mL (measured mg/mL) [3]: 11 mg/mL
